Experimental data from ChEMBL document CHEMBL1145559, “Design, synthesis and in vitro antiprotozoal activity of benzimidazole-pentamidine hybrids” (Bioorg Med Chem Lett, 2008).
Active and inactive are the calls of the source. The rule behind the calls is not given here.

How the values were obtained:
Giardia intestinalis = assay: Antiprotozoal activity against Giardia lamblia; type: functional, organism-based; conditions: Giardia duodenalis
Entamoeba histolytica = assay: Antiprotozoal activity against Entamoeba histolytica; type: functional, organism-based
Trichomonas vaginalis = assay: Antiprotozoal activity against Trichomonas vaginalis; type: functional, organism-based
Plasmodium berghei [1] = assay: Antiprotozoal activity against Plasmodium berghei; type: functional, organism-based
Leishmania mexicana = assay: Antiprotozoal activity against Leishmania mexicana; type: functional, organism-based
Plasmodium berghei [2] = assay: Antiprotozoal activity against Plasmodium berghei at 100 uM; type: functional
Plasmodium berghei [3] = assay: Antiprotozoal activity as cell damage against Plasmodium berghei; type: functional, organism-based

SMILES | IC50 (Giardia intestinalis) | IC50 (Entamoeba histolytica) | IC50 (Trichomonas vaginalis) | IC50 (Plasmodium berghei [1]) | IC50 (Leishmania mexicana) | inhibition at 100 µM (Plasmodium berghei [2]) | Activity (Plasmodium berghei [2]) | Activity (Plasmodium berghei [3])
Cc1ncc([N+](=O)[O-])n1CCO [METRONIDAZOLE] | 1.29 µM | 0.771 µM | 0.286 µM |  |  |  |  | 
COc1ccc2[nH]c(-c3ccc(OCCCCCOc4ccc(-c5nc6cc(OC)ccc6[nH]5)cc4OC)c(OC)c3)nc2c1 | 5.19 µM | 0.284 µM | 6.29 µM | 24 µM | > 50 µM |  |  | 
c1ccc2[nH]c(-c3ccc(OCCCCCOc4ccc(-c5nc6ccccc6[nH]5)cc4)cc3)nc2c1 | 1.84 µM | 0.436 µM | 3.18 µM | 100 µM | 1.06 µM | 37% |  | 
COc1cc(-c2nc3ccccc3[nH]2)ccc1OCCCCCOc1ccc(-c2nc3ccccc3[nH]2)cc1OC | 12.7 µM | 5.19 µM | 6.15 µM | 166 µM | > 50 µM |  |  | 
COc1ccc2[nH]c(-c3ccc(OCCCCCOc4ccc(-c5nc6cc(OC)ccc6[nH]5)cc4)cc3)nc2c1 | 0.435 µM | 0.109 µM | 0.164 µM | 34.6 µM | 0.712 µM |  |  | 
COc1cc(-c2nc3cc(C)ccc3[nH]2)ccc1OCCCCCOc1ccc(-c2nc3cc(C)ccc3[nH]2)cc1OC | 0.372 µM | 4.5 µM | 1.02 µM |  | > 50 µM |  | inactive | 
N=C(N)c1ccc(OCCCCCOc2ccc(C(=N)N)cc2)cc1 [PENTAMIDINE] | 4.08 µM | 11.8 µM | 3.81 µM |  | 9.57 µM |  |  | Active
O=[N+]([O-])c1ccc2[nH]c(-c3ccc(OCCCCCOc4ccc(-c5nc6cc([N+](=O)[O-])ccc6[nH]5)cc4)cc3)nc2c1 | 7.41 µM | 10.2 µM | 3.58 µM | 100 µM | > 50 µM | 46% |  | 
FC(F)(F)c1ccc2[nH]c(-c3ccc(OCCCCCOc4ccc(-c5nc6cc(C(F)(F)F)ccc6[nH]5)cc4)cc3)nc2c1 | 9.6 µM | 7.29 µM | 4.96 µM | 6.53 µM | > 50 µM |  |  | 
COc1cc(-c2nc3cc([N+](=O)[O-])ccc3[nH]2)ccc1OCCCCCOc1ccc(-c2nc3cc([N+](=O)[O-])ccc3[nH]2)cc1OC | 3.4 µM | 12.1 µM | 0.794 µM | 25.9 µM | 16.8 µM |  |  | 
COc1cc(-c2nc3cc(C(F)(F)F)ccc3[nH]2)ccc1OCCCCCOc1ccc(-c2nc3cc(C(F)(F)F)ccc3[nH]2)cc1OC |  |  |  | 63.1 µM | > 50 µM |  |  | 
Cc1ccc2[nH]c(-c3ccc(OCCCCCOc4ccc(-c5nc6cc(C)ccc6[nH]5)cc4)cc3)nc2c1 | 4.89 µM | 0.153 µM | 4.16 µM | 100 µM | 0.368 µM | 43% |  | 
